Where “and” joins values, the source holds several entries; their conditions need not be identical. Equal values may be shown once.
What follows are compounds tested on CAL-148 (assay: normalised viability (% of control), CellTiter-Blue; higher = more viable cells (about 100 = DMSO control)). Settings: incubation time: 72 h.
Method: (§1)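 DSRT, CellTiter-Blue viability, 72 h incubation. Signal is normalised to DMSO and benzethonium chloride controls. Value is the normalised response at dose 6.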

**Q.** How did the normalised viability turn out when `Cc1cc(Nc2cc(CN3CCOCC3)c3nc(C)c(Cc4ccc(Cl)cc4F)n3n2)n[nH]1` (300 nM) was run?
**A.** The normalised viability was 89.3%.

**Q.** With `N#Cc1ccc(COC[C@H]2O[C@@H](n3c(NCc4ccc(Cl)c(Cl)c4)nc4c(N)ncnc43)[C@H](O)[C@@H]2O)cc1` (300 nM) as the compound, how does the normalised viability read?
**A.** The normalised viability was 110%.

**Q.** With `COc1cc(OC2CCN(C)CC2)ccc1Nc1ncc2c(n1)n(C1CCCC1)c(=O)n2C` [AZ 3146] (300 nM) as the compound, how does the normalised viability read?
**A.** The normalised viability was 115%.

**Q.** How did the normalised viability turn out when `CN(C)c1nc(N(C)C)nc(N(C)C)n1` [Altretamine] (300 nM) was run?
**A.** The normalised viability was 112%.

**Q.** `COC(=O)c1ccc2c(c1)NC(=O)/C2=C(\Nc1ccc(N(C)C(=O)CN2CCN(C)CC2)cc1)c1ccccc1` [BIBF 1120] (300 nM) was tested. Which normalised viability did it give?
**A.** Its normalised viability is 96.1%.

**Q.** For `Nc1cc(C(F)(F)F)c(-c2cc(N3CCOCC3)nc(N3CCOCC3)n2)cn1` [BKM-120] (300 nM), which normalised viability is on record?
**A.** The normalised viability was 92.5%.

**Q.** Which normalised viability does the source give for `O=C(/C=C/c1cccc(S(=O)(=O)Nc2ccccc2)c1)NO` [Belinostat] (300 nM) here?
**A.** Its normalised viability is 49.3%.

**Q.** Which normalised viability does the source give for `O=P1(N(CCCl)CCCl)NCCCO1` (stereo unspecified) [Cyclophosphamide] (1200 nM) here?
**A.** Its normalised viability is 107%.

**Q.** For `C=C1C[C@@H]2[C@H](CC[C@]3(C)C(=O)CC[C@@H]23)[C@@]2(C)C=CC(=O)C=C12` [Exemestane] (300 nM), which normalised viability is on record?
**A.** The normalised viability was 87%.

**Q.** For `COc1cc2ncnc(Nc3ccc(F)c(Cl)c3)c2cc1OCCCN1CCOCC1` [Gefitinib] (300 nM), which normalised viability is on record?
**A.** Its normalised viability is 95.6% and 84.7%.

**Q.** How did the normalised viability turn out when `O=C(Nc1ccncc1)C(=O)c1cn(Cc2ccc(Cl)cc2)c2ccccc12` [Indibulin] (300 nM) was run?
**A.** Its normalised viability is 95.7%.

**Q.** With `NC(=O)c1ccc(I)c([N+](=O)[O-])c1` [Iniparib] (300 nM) as the compound, how does the normalised viability read?
**A.** Its normalised viability is 89.2%.

**Q.** `CCc1c2c(nc3ccc(OC(=O)N4CCC(N5CCCCC5)CC4)cc13)-c1cc3c(c(=O)n1C2)COC(=O)[C@]3(O)CC` [Irinotecan] (300 nM) was tested. Which normalised viability did it give?
**A.** Its normalised viability is 82.5% and 96.9%.

**Q.** With `Oc1ccc2c(c1)CC[C@H](c1ccccc1)[C@@H]2c1ccc(OCCN2CCCC2)cc1` [Lasofoxifene] (30 nM) as the compound, how does the normalised viability read?
**A.** The normalised viability was 116%.

**Q.** Which normalised viability does the source give for `Cc1ccc(NC(=O)c2ccc(CN3CCN(C)CC3)cc2)cc1Nc1nc(-c2cccnc2)cs1` [Masitinib] (300 nM) here?
**A.** The normalised viability was 84.7%.

These compounds were tested on CAL-51 in the same assay as above. Settings: incubation time: 72 h.
Method: as §1

**Q.** How did the normalised viability turn out when `Cc1cc(Nc2cc(CN3CCOCC3)c3nc(C)c(Cc4ccc(Cl)cc4F)n3n2)n[nH]1` (300 nM) was run?
**A.** Its normalised viability is 90.5%.

**Q.** `N#Cc1ccc(COC[C@H]2O[C@@H](n3c(NCc4ccc(Cl)c(Cl)c4)nc4c(N)ncnc43)[C@H](O)[C@@H]2O)cc1` (300 nM) was tested. Which normalised viability did it give?
**A.** Its normalised viability is 117%.

**Q.** With `COc1cc(OC2CCN(C)CC2)ccc1Nc1ncc2c(n1)n(C1CCCC1)c(=O)n2C` [AZ 3146] (300 nM) as the compound, how does the normalised viability read?
**A.** The normalised viability was 87.6%.

**Q.** `CN(C)c1nc(N(C)C)nc(N(C)C)n1` [Altretamine] (300 nM) was tested. Which normalised viability did it give?
**A.** Its normalised viability is 108%.

**Q.** Which normalised viability does the source give for `COC(=O)c1ccc2c(c1)NC(=O)/C2=C(\Nc1ccc(N(C)C(=O)CN2CCN(C)CC2)cc1)c1ccccc1` [BIBF 1120] (300 nM) here?
**A.** The normalised viability was 93.9%.

**Q.** With `Nc1cc(C(F)(F)F)c(-c2cc(N3CCOCC3)nc(N3CCOCC3)n2)cn1` [BKM-120] (300 nM) as the compound, how does the normalised viability read?
**A.** Its normalised viability is 78.4%.

**Q.** For `O=C(/C=C/c1cccc(S(=O)(=O)Nc2ccccc2)c1)NO` [Belinostat] (300 nM), which normalised viability is on record?
**A.** Its normalised viability is 105%.

**Q.** `O=P1(N(CCCl)CCCl)NCCCO1` (stereo unspecified) [Cyclophosphamide] (1200 nM) was tested. Which normalised viability did it give?
**A.** Its normalised viability is 106%.

**Q.** With `C=C1C[C@@H]2[C@H](CC[C@]3(C)C(=O)CC[C@@H]23)[C@@]2(C)C=CC(=O)C=C12` [Exemestane] (300 nM) as the compound, how does the normalised viability read?
**A.** The normalised viability was 97.1%.

**Q.** For `COc1cc2ncnc(Nc3ccc(F)c(Cl)c3)c2cc1OCCCN1CCOCC1` [Gefitinib] (300 nM), which normalised viability is on record?
**A.** Its normalised viability is 104% and 106%.

**Q.** How did the normalised viability turn out when `O=C(Nc1ccncc1)C(=O)c1cn(Cc2ccc(Cl)cc2)c2ccccc12` [Indibulin] (300 nM) was run?
**A.** Its normalised viability is 71.3%.

**Q.** How did the normalised viability turn out when `NC(=O)c1ccc(I)c([N+](=O)[O-])c1` [Iniparib] (300 nM) was run?
**A.** The normalised viability was 98.7%.

**Q.** Which normalised viability does the source give for `CCc1c2c(nc3ccc(OC(=O)N4CCC(N5CCCCC5)CC4)cc13)-c1cc3c(c(=O)n1C2)COC(=O)[C@]3(O)CC` [Irinotecan] (300 nM) here?
**A.** Its normalised viability is 101% and 105%.

**Q.** Which normalised viability does the source give for `Oc1ccc2c(c1)CC[C@H](c1ccccc1)[C@@H]2c1ccc(OCCN2CCCC2)cc1` [Lasofoxifene] (30 nM) here?
**A.** Its normalised viability is 106%.

**Q.** How did the normalised viability turn out when `Cc1ccc(NC(=O)c2ccc(CN3CCN(C)CC3)cc2)cc1Nc1nc(-c2cccnc2)cs1` [Masitinib] (300 nM) was run?
**A.** The normalised viability was 98.2%.

Each compound was assayed on CAL-85-1 in the same assay as above. Settings: incubation time: 72 h.
Method: as §1

**Q.** Which normalised viability does the source give for `Cc1cc(Nc2cc(CN3CCOCC3)c3nc(C)c(Cc4ccc(Cl)cc4F)n3n2)n[nH]1` (300 nM) here?
**A.** The normalised viability was 103%.

**Q.** With `N#Cc1ccc(COC[C@H]2O[C@@H](n3c(NCc4ccc(Cl)c(Cl)c4)nc4c(N)ncnc43)[C@H](O)[C@@H]2O)cc1` (300 nM) as the compound, how does the normalised viability read?
**A.** The normalised viability was 96.9%.

**Q.** How did the normalised viability turn out when `COc1cc(OC2CCN(C)CC2)ccc1Nc1ncc2c(n1)n(C1CCCC1)c(=O)n2C` [AZ 3146] (300 nM) was run?
**A.** The normalised viability was 109%.

**Q.** For `CN(C)c1nc(N(C)C)nc(N(C)C)n1` [Altretamine] (300 nM), which normalised viability is on record?
**A.** Its normalised viability is 95.9%.

**Q.** For `COC(=O)c1ccc2c(c1)NC(=O)/C2=C(\Nc1ccc(N(C)C(=O)CN2CCN(C)CC2)cc1)c1ccccc1` [BIBF 1120] (300 nM), which normalised viability is on record?
**A.** The normalised viability was 111%.

**Q.** With `Nc1cc(C(F)(F)F)c(-c2cc(N3CCOCC3)nc(N3CCOCC3)n2)cn1` [BKM-120] (300 nM) as the compound, how does the normalised viability read?
**A.** Its normalised viability is 81.2%.

**Q.** For `O=C(/C=C/c1cccc(S(=O)(=O)Nc2ccccc2)c1)NO` [Belinostat] (300 nM), which normalised viability is on record?
**A.** Its normalised viability is 72.5%.

**Q.** `O=P1(N(CCCl)CCCl)NCCCO1` (stereo unspecified) [Cyclophosphamide] (1200 nM) was tested. Which normalised viability did it give?
**A.** Its normalised viability is 108%.

**Q.** How did the normalised viability turn out when `C=C1C[C@@H]2[C@H](CC[C@]3(C)C(=O)CC[C@@H]23)[C@@]2(C)C=CC(=O)C=C12` [Exemestane] (300 nM) was run?
**A.** Its normalised viability is 88.5%.

**Q.** With `COc1cc2ncnc(Nc3ccc(F)c(Cl)c3)c2cc1OCCCN1CCOCC1` [Gefitinib] (300 nM) as the compound, how does the normalised viability read?
**A.** The normalised viability was 69.8% and 65.9%.

**Q.** How did the normalised viability turn out when `O=C(Nc1ccncc1)C(=O)c1cn(Cc2ccc(Cl)cc2)c2ccccc12` [Indibulin] (300 nM) was run?
**A.** Its normalised viability is 55.8%.

Source: the supplement of paper PMC4862054
